Laboratory results taken from patent US5767088A, “Tachykinin antagonists” (Warner-Lambert Company, priority 1996, dated 1998).

target: T1, NK3 receptor (Homo sapiens, UniProt P29371); assay: NK3 receptor binding assay, [125I]-[MePhe7]neurokinin B, Chinese hamster ovary cell membranes; conditions: competition with [125I]-[MePhe7]neurokinin B 40-100 pM, 90 minutes at 22° C., CHO cell membranes
T1 construct: host or cells: Chinese hamster ovary cells (membranes)
T1 sequence (P29371 1-465): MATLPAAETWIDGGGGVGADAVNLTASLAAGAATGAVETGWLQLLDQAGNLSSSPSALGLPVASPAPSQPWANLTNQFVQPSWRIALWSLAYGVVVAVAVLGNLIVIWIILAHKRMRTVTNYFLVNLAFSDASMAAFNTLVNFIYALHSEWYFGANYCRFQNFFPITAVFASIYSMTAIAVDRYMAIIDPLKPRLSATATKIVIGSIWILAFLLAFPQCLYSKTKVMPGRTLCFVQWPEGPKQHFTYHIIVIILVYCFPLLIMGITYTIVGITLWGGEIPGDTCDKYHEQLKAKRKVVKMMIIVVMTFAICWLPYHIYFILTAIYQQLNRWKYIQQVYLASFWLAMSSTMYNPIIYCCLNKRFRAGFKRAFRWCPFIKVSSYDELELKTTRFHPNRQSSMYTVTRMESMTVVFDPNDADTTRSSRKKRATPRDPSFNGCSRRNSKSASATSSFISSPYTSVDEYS

Molecule	IC50 [nM]
CC(C)(C)OC(=O)N[C@@H](Cc1ccccc1)C(=O)NC(C)(Cc1ccccc1)C(=O)NCCCc1ccc(O)cc1 (mixture of isomers) [Example 4, DL-Phenylalaninamide, N-[(1,1-dimethylethoxy)carbonyl]-L-phenylalanyl-N-[3-(4-hydroxyphenyl)propyl]-α-methyl-]	88
CC(C)CCNC(=O)C(C)(Cc1ccccc1)NC(=O)[C@H](Cc1ccccc1)NC(=O)OC(C)(C)C (mixture of isomers) [Example 5, DL-Phenylalaninamide, N-[(1,1-dimethylethoxy)carbonyl]-L-phenylalanyl-α-methyl-N-3-methylbutyl-]	123
CC(C)(C)OC(=O)N[C@@H](Cc1ccccc1)C(=O)NC(C)(Cc1ccccc1)C(=O)NCCCCCc1ccccc1 (mixture of isomers) [Example 6, DL-Phenylalaninamide, N-[(1,1-dimethylethoxy)carbonyl]-L-phenylalanyl-α-methyl-N-(5-phenylpentyl)-]	77
CC(C)(C)OC(=O)N[C@@H](Cc1ccccc1)C(=O)NC(C)(Cc1ccccc1)C(=O)NC1CCCC1 (mixture of isomers) [Example 7, DL-Phenylalaninamide, N-[(1,1-dimethylethoxy)carbonyl]-L-phenylalanyl-N-cyclopentyl-α-methyl-]	556
CC(=O)NCCNC(=O)C(C)(Cc1ccccc1)NC(=O)[C@H](Cc1ccccc1)NC(=O)OC(C)(C)C (mixture of isomers) [Example 10, DL-Phenylalaninamide, N-[(1,1-dimethylethoxy)carbonyl]-L-phenylalanyl-N-[2-(acetylamino)ethyl]-α-methyl-]	180
CC(C)(C)OC(=O)N[C@@H](Cc1ccccc1)C(=O)NC(C)(Cc1ccccc1)C(=O)NCCC1CCCC1 (mixture of isomers) [Example 11, DL-Phenylalaninamide, N-[(1,1-dimethylethoxy)carbonyl]-L-phenylalanyl-N-(2-cyclopentylethyl)-α-methyl-]	129
COc1ccc(CCCCNC(=O)[C@@](C)(Cc2ccccc2)NC(=O)[C@H](Cc2ccccc2)NC(=O)OC(C)(C)C)cc1 [Example 3]	83

Second part, the molecule after the results:

IC50 [nM]	Molecule
141	CC(C)(C)OC(=O)N[C@@H](Cc1ccccc1)C(=O)NC(C)(Cc1ccccc1)C(=O)NCCc1ccc(Cl)cc1 (mixture of isomers) [Example 12, DL-Phenylalaninamide, N-[(1,1-dimethylethoxy)carbonyl]-L-phenylalanyl-N-[2-(4-chlorophenyl)ethyl]-α-methyl-]
1220	CC(Cc1ccccc1)(NC(=O)[C@H](Cc1ccccc1)NC(=O)OCC1CCCCC1)C(N)=O (mixture of isomers) [Example 16, DL-Phenylalaninamide, N-[(cyclohexylmethoxy)carbonyl]-L-phenylalanyl-α-methyl-]
1310	CC(C)COC(=O)N[C@@H](Cc1ccccc1)C(=O)NC(C)(Cc1ccccc1)C(N)=O (mixture of isomers) [Example 17, DL-Phenylalaninamide, N-[(2-methylpropoxy)carbonyl]-L-phenylalanyl-α-methyl-]
1530	CC(Cc1ccccc1)(NC(=O)[C@H](Cc1ccccc1)NC(=O)OCc1ccc(Cl)c(Cl)c1)C(N)=O (mixture of isomers) [Example 18, DL-Phenylalaninamide, N-[[(3,4-dichlorophenyl)-methoxy]carbonyl]-L-phenylalanyl-α-methyl-]
1350	CC(C)(C)OC(=O)N[C@@H](Cc1ccccc1)C(=O)NC(C)(Cc1cccc(Cl)c1)C(N)=O (mixture of isomers) [Example 20, DL-Phenylalaninamide, N-[(1,1-dimethylethoxy)carbonyl]-L-phenylalanyl-3-chloro-α-methyl-]
904	CC(C)(C)OC(=O)NC(Cc1cccc(Cl)c1)C(=O)N[C@](C)(Cc1ccccc1)C(N)=O (mixture of isomers) [Example 21, D-Phenylalaninamide, 3-chloro-N-[(1,1-dimethylethoxy)-carbonyl]-DL-phenylalanyl-α-methyl-]
719	CC(C)(C)OC(=O)N[C@@H](Cc1ccccc1)C(=O)NC(C)(Cc1ccccc1)C(=O)NCC1CCC(C(=O)O)CC1 (mixture of isomers) [Example 13, DL-Phenylalaninamide, N-[(1,1-dimethylethoxy)carbonyl]-L-phenylalanyl-N-[(4-carboxycyclohexyl)methyl]-α-methyl-, trans-]
4330	CC(C)(C)OC(=O)NC(CNC(Cc1ccccc1)C(N)=O)Cc1ccccc1 (stereo not drawn) [Example 22, Carbamic acid, [2-[[2-amino-2-oxo-1-(phenylmethyl)-ethyl]amino]-1-(phenylmethyl)ethyl]-, 1,1-dimethylethyl ester]
3060	DL-Phenylalaninamide, N-[[(octahydro-2-naphthalenyl)-oxy]carbonyl]-L-phenylalanyl-α-methyl [Example 19]

target: T2, NK3 (Cavia porcellus, UniProt P30098); assay: guinea pig ileum assay (Schild analysis of contractile responses); assay type: cell-based; design: in vitro peripheral guinea pig ileum assay; from tissue; host or cells: guinea pig ileum (organ bath); conditions: NK3 antagonist activity; antagonist dissociation constant by Schild analysis
T2 sequence (P30098 1-440): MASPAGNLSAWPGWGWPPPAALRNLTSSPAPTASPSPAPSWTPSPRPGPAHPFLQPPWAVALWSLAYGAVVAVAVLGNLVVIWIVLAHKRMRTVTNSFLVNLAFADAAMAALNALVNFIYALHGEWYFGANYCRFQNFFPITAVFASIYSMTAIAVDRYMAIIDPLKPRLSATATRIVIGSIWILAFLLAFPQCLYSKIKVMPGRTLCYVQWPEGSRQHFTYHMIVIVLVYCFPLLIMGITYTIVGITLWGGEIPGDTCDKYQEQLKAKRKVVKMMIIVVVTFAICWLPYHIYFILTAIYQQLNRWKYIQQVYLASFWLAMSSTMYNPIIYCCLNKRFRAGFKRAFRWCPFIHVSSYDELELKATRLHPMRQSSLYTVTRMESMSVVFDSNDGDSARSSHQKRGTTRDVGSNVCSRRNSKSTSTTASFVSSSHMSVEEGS

Kb [nM]	Molecule
10	CC(C)(C)OC(=O)N[C@@H](Cc1ccccc1)C(=O)N[C@](C)(Cc1ccccc1)C(=O)NCCCCCCCCC(N)=O [Example 2, D-Phenylalaninamide, N-[(1,1-dimethylethoxy)carbonyl]-L-phenylalanyl-N-(9-amino-9-oxononyl)-α-methyl-]

target: T2, NK3; assay: guinea pig medial habenula assay (block of senktide-induced increases in firing rate, brain slice); assay type: cell-based; design: guinea pig medial habenula neurones in a brain slice preparation in vitro; from tissue; host or cells: guinea pig medial habenula brain slice; conditions: NK3 antagonist activity; mean equilibrium constant against senktide; brain slice in vitro; read-out: Guinea Pig Medial Habenula (Ke)

Kd [nM]	Molecule
25	CC(C)(C)OC(=O)N[C@@H](Cc1ccccc1)C(=O)N[C@](C)(Cc1ccccc1)C(=O)NCCCCCCCCC(N)=O [Example 2, D-Phenylalaninamide, N-[(1,1-dimethylethoxy)carbonyl]-L-phenylalanyl-N-(9-amino-9-oxononyl)-α-methyl-]
